Earlier results on two molecules are cited in patent US12678407B2 (HANMI PHARM. CO., LTD., priority 2020, dated 2026).

What is called bioavailability is dose-corrected exposure relative to a reference, in per cent.

The conditions of this series: according to FDA Clinical Pharmacology Biopharmaceutics Review.

Take `CCOc1ccc(Cc2cc([C@@H]3O[C@H](CO)[C@@H](O)[C@H](O)[C@H]3O)ccc2Cl)cc1` [dapagliflozin, (2S,3R,4R,5S,6R)-2-[4-chloro-3-(4-ethoxybenzyl)phenyl]-6-(hydroxymethyl)tetrahydro-2H-pyran-3,4,5-triol]: the bioavailability is reported as 87%.
For the molecule `N[C@@H](CC(=O)N1CCn2c(nnc2C(F)(F)F)C1)Cc1cc(F)c(F)cc1F` [sitagliptin, (R)-3-amino-1-(3-(trifluoromethyl)-5,6-dihydro-[1,2,4]triazole[4,3-a]pyrazin-7(8H)-yl)-4-(2,4,5-trifluorophenyl)butan-1-one], the bioavailability was 78%.
